The source of these data is patent US9839668B2, “Compositions and methods for the treatment of diseases related to the renin-angiotensin-system” (ATTOQUANT DIAGNOSTICS GMBH, priority 2013, dated 2017).

Experiment [1] deals with Ang 1-8 and Ang 1-7 levels in human whole blood. Nature of the experiment: Ang 1-8 and Ang 1-7 levels in human heparinized whole blood plus recombinant human renin, ex vivo, LC-MS/MS. The format is biochemical. As to conditions: human whole blood + 100 pg/ml renin, 60 min 37° C., ACE inhibitors 10 μM; for Ang 1-7 level: vehicle control 27 pg/ml; for Ang 1-8 level: vehicle control 686 pg/ml. As to the method: Blood was collected from a human healthy volunteer using a standard heparin blood collection tube. Recombinant human renin was added to whole blood at a concentration of 100 pg/ml in order to simulate RAS hyper-activation. Drugs and combinations were added to different plasma samples at indicated final concentrations and combinations (FIG. 2) using appropriate solvent controls for each compound or combination tested. Following an incubation period of 60 min at 37° C., samples were stabilized by addition of protease inhibitors and Ang 1-8 and Ang 1-7 levels were measured by mass spectrometry.
Ang 1-8 and Ang 1-7 levels were measured following 1 h of incubating the compounds with human heparinized whole blood (plus recombinant human renin) at 37° C.

In another experiment the test system is Balb/c mice. Kind of experiment: Plasma Ang 1-8 and Ang 1-7 levels in Balb/c mice after intra-peritoneal injection, LC-MS/MS. It counts as in vivo, mouse. As to the method: Mice were sacrificed 4 h following drug administration and blood was collected in the presence of protease inhibitors suitable for stabilization of angiotensin peptides in the collected sample. Following centrifugation of blood at 2500 g for 5 min at 4° C., Ang 1-8 and Ang 1-7 was quantified in the plasma samples by LC-MS/MS analysis.

In a further experiment the test system is rats. The following applies: administered to the periphery by intravenous injection in rats; cited from earlier work.
In a further experiment the test system is APA over APN. The following applies: cited from earlier work.
Another experiment relates to SHR rats. Nature of the experiment: Systolic blood pressure in male SHR rats, tail-cuff method. The format is in vivo, rat. The following applies: day 7, mean +/-SEM. As to the method: Twenty male 16-week-old SHR rats were used for investigation of short-term effects of the new drug combination on systolic blood pressure. Prior to starting the treatment procedure, rats were conditioned to the experimental procedure by daily blood pressure measurements using the tail-cuff method for 1 week. […] Daily blood pressure measurements were performed 4 h following drug administration and continued throughout the whole treatment period. Blood-pressure data were evaluated by calculating the relative change in systolic blood pressure compared to the vehicle group at day 7 of drug administration. Statistical comparison between the groups was conducted by using Student's T-test.
Mean body weight and baseline systolic blood pressure of SHR rats were determined at the beginning of the treatment period resulting in a mean body weight of 283 g and mean systolic blood pressure of 196 mmHg. Following 7 days of daily oral administration of different compounds and compound combinations, systolic blood pressure was monitored by tail-cuff method and the relative changes compared to vehicle treated control rats (V) mean values are shown with corresponding standard errors of the mean (+/−SEM) (FIG. 1).

For the next experiment, the system named is SHR rat. As to conditions: one SHR rat, i.v. 50 μmol/kg Lisinopril then 20 μmol/kg Amastatin, blood 10 min after each infusion.
A further experiment deals with T1, APA in the brain (Rattus norvegicus, UniProt P50123).
T1 construct: host or cells: brain, in vivo
As to conditions: via inhibition of APA by active metabolite EC-33 in the brain; cited from earlier work.

Experiment [2] has as its target T2, APA (recombinant human ENPEP) (Homo sapiens, UniProt Q07075).
T2 construct: purchased R&D 2499-ZN
Kind of experiment: In vitro APA activity assay: conversion of Ang 1-8 to Ang 2-8, LC-MS/MS. As to conditions: 0.1 μM Amastatin, 1 μg/ml APA. The format is biochemical. How it is done:
(§1) APA activity was determined by measuring Ang 2-8 formation using LC-MS/MS. The Ang 2-8 formation rate is given in pg Ang 2-8/ml per minute. […] Following the incubation period, samples were cooled on ice, stabilized by the addition of protease inhibitors and analyzed for Ang 1-8 levels by LC-MS/MS.

Another experiment has as its system human APA in plasma. Nature of the experiment: Ex vivo APA activity and Ang 1-8 levels in human heparin plasma plus recombinant human renin. It counts as biochemical. How it is done:
as §1

The target of another experiment is APN (EC 3.4.11.2) (Homo sapiens, UniProt P15144). The following applies: APN vs APA; cited from earlier work.
Chain of APN (EC 3.4.11.2) (P15144 whole entry, species assumed): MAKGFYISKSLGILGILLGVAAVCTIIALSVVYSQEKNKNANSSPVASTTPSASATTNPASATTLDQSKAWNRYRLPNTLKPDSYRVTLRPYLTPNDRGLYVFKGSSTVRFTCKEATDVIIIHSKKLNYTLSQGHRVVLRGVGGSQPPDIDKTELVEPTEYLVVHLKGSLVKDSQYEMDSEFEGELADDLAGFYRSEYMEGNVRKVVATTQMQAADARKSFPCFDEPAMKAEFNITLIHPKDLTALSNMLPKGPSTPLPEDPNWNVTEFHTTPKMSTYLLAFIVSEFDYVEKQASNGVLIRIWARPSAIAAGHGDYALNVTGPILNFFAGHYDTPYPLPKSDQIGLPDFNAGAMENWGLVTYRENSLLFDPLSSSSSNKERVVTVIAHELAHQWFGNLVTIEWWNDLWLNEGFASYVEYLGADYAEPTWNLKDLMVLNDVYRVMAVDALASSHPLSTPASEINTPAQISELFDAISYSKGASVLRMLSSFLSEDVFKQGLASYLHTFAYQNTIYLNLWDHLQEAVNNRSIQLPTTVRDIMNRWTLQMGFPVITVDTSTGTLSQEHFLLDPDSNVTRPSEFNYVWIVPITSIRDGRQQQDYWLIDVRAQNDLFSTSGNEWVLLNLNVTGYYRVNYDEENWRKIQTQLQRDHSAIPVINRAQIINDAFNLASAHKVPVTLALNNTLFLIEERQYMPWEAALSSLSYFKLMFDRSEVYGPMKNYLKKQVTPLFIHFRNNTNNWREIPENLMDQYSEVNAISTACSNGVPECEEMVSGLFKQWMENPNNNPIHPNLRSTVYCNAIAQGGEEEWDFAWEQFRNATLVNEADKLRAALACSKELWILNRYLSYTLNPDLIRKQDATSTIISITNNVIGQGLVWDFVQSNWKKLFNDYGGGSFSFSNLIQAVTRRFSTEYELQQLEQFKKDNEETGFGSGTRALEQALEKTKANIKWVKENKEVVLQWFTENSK

T2 sequence (Q07075 whole entry): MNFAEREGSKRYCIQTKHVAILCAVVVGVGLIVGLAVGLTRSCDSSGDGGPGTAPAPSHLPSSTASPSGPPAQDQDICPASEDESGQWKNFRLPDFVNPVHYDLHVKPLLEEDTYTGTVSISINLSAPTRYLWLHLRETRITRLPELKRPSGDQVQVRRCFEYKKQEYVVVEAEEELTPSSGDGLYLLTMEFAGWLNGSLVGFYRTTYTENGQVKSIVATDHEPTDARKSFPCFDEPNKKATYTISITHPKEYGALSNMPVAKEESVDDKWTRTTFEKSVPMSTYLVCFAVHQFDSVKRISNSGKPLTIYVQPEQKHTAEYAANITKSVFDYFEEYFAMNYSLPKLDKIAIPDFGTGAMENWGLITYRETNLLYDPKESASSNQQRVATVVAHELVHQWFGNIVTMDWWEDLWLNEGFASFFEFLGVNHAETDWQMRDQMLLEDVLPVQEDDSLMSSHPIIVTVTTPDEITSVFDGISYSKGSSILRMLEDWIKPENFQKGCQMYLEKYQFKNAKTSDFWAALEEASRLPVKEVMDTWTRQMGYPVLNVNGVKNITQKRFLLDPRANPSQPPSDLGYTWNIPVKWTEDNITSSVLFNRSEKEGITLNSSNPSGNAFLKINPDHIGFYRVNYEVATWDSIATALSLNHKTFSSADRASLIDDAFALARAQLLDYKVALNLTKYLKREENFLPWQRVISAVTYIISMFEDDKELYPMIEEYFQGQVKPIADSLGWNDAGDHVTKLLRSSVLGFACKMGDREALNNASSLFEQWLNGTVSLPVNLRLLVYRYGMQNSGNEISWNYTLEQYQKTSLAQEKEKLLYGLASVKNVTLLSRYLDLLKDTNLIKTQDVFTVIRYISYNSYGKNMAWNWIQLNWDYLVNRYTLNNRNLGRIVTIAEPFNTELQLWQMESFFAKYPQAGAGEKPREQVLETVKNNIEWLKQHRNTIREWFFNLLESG
T1 sequence (P50123 whole entry): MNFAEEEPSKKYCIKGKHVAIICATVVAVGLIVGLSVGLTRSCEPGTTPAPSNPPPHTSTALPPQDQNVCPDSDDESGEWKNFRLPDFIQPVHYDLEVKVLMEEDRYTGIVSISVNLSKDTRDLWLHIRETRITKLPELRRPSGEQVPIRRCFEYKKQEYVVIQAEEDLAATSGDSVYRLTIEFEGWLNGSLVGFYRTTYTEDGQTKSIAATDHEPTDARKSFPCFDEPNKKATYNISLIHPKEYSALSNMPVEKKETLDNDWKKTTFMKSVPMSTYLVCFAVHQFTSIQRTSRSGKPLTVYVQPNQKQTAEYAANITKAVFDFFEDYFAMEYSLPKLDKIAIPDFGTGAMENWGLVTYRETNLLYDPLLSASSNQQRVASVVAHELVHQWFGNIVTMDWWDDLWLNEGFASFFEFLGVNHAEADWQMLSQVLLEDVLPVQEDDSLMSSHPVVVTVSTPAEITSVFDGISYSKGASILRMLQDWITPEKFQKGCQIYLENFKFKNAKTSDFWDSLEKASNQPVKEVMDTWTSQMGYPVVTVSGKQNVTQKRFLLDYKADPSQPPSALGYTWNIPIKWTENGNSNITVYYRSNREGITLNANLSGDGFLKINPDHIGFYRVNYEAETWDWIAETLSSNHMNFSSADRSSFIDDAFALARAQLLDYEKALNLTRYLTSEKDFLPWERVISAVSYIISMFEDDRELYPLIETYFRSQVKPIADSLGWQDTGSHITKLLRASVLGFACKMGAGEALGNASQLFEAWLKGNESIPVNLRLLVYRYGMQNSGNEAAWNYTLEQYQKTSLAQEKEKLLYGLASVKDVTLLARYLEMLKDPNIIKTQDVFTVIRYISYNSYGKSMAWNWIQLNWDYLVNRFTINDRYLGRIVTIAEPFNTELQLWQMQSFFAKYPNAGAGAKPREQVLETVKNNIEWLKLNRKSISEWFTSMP

`C[C@H](CS)C(=O)N1CCC[C@H]1C(=O)O` [Captopril]: in [1], the “Ang 1-7 level” value was 100 pg/mL and the “Ang 1-8 level” value was 29 pg/mL. The “increase of Ang 1-7 following ACE inhibitor treatment alone” value in the experiment on Balb/c mice (4 h after i.p. injection) was “not observed”.
As for `N[C@H](CS)CCS(=O)(=O)O` [EC-33], the “effect on blood pressure” value with rats is reported as “no effect on blood pressure”. The “selectivity for APA over APN” value in the experiment on APA over APN is given as “at least 100 fold”.
As for `NCCCC[C@H](N[C@@H](CCc1ccccc1)C(=O)O)C(=O)N1CCC[C@H]1C(=O)O` [Lisinopril], the “decrease in systolic blood pressure compared to vehicle treated animals” value with SHR rats (40 mg/kg of each drug daily for 7 days, measured 4 h after dosing, 5 animals per group) is recorded as 18.6+/−3.9 mmHg. Besides, in experiment [1], the “Ang 1-7 level” value turned out to be 153 pg/mL and the “Ang 1-8 level” value turned out to be 33 pg/mL. Moreover, the “increase of Ang 1-7 following ACE inhibitor treatment alone” value in the experiment with Balb/c mice (4 h after i.p. injection) is “not observed”. In the experiment on SHR rat (after saline 42.7 pg/ml), the “equilibrium Ang 1-8 level” value came out at 21.5 pg/mL. The “equilibrium Ang 1-7 level” value with SHR rat (after saline below 3.4 pg/ml) came out at 12.1 pg/mL.
Consider `N[C@@H](CCS(=O)(=O)O)CSSC[C@@H](N)CCS(=O)(=O)O` [RB150], for which the “effect on blood pressure” value on APA in the brain is given as “effective in lowering blood pressure”.
With `CC(C)C[C@@H](N)[C@H](O)C(=O)N[C@H](C(=O)N[C@H](C(=O)N[C@@H](CC(=O)O)C(=O)O)C(C)C)C(C)C` [Amastatin], the “increase in mean systolic blood pressure compared to vehicle treated animals” value with SHR rats (40 mg/kg daily for 7 days, not significant (p=0.60)) is on record as 5.8+/−7.0 mmHg. Moreover, in experiment [1], the “Ang 1-7 level” value was 15 pg/mL and the “Ang 1-8 level” value stood at 1016 pg/mL. The “effect on APA activity in vitro” value in experiment [2] is “did not affect APA activity in vitro”. Moreover, in [2] (100 ng/ml Ang 1-8, 37° C. 10 min, 971 without Amastatin), the “Ang 2-8 formation rate” value is given as 1077 pg Ang 2-8/ml per minute. The “effect on the activity of human APA in plasma” value in the experiment with human APA in plasma (0.1 μM Amastatin, 1 μg/ml APA) was “did not affect the activity of human APA in plasma”. The “Ang 1-8 level in human heparin plasma” value with human APA in plasma (0.1 μM Amastatin, no added APA, 100 pg/ml renin, 60 min 37° C., untreated control 412 pg/ml) stood at 752 pg/mL. Also, the “reduction of Ang 1-8 levels by 1 μg/ml APA in the presence of 0.1 μM Amastatin” value with human APA in plasma (human heparin plasma, 266 pg/ml without Amastatin) is 323 pg/mL. In addition, the “change in circulating Ang 1-8” value with Balb/c mice (40 mg/kg i.p., 4 h following drug administration) was “decrease”. For the same compound, the “plasma Ang 1-7 level” value with Balb/c mice (4 h after i.p. injection, 40 mg/kg each, baseline below LLOQ) was < 4 pg/mL. In addition, the “more potent in inhibiting APN compared to APA” value on APN (EC 3.4.11.2) was 40 fold.
